Data reported in US8383637B2, “2-amino-quinazoline derivatives useful as inhibitors of β-secretase (BACE)” (Jansssen Pharmaceutica N.V., priority 2004, dated 2013).

Experiments:
Format in all cases: biochemical
[1] = molecular target: T1, β-secretase(BACE) (Homo sapiens, UniProt P56817); assay: BACE Assay-1 (MCA-substrate, IC50); settings: procedure of Example 158; read-out: IC50 μM (158)
T1 construct: purchased Panvera
Description: The following standards are reagents were used in this assay: Sodium Citrate trisodium salt dihydrate (Sigma), Citric Acid monohydrate (Merck), PEG8000 (Sigma), MCA-substrate (Bachem), β-secretase (BACE) (Panvera), 96-well plate zwart (Costar (Elscolab)), StatVal (Bachem).
The following standard assay buffer solution was prepared and used in this assay: 0.05 M, pH 5.0 mixture of sodium citrate trisodium salt dihydrate (9.56 g), citric acid monohydrate (3.68 g) and PEG8000 (0.50 g).
The MCA-substrate stock solution was prepared by mixing 10 mg MCA-substrate with 5 mL DMSO for a final solution concentration of 2.0 mg/mL. The substrate work solution was prepared by mixing 0.1 mL substrate in 1.90 mL assay buffer for a final concentration of 0.05 mM. The β-secretase (BACE) work solution was prepared by mixing 8 μL BACE in 2 mL assay buffer for a final concentration of 10 μg/mL.
The screen procedure for this assay was as follows. 60 μL of assay buffer was pippeted into each well of a 96-well plate. To each well was then pipetted 1 μL of test compound at the selected concentration. To each well was then added 20 μL of the β-secretase work solution and 20 μL of the MCA-substrate stock solution.
The procedure for the blank was as follows. 80 μL of assay buffer was pipetted into each well to be used as a blank control. To each well was then added 1 μL of DMSO and 20 μL of MCA-substrate solution in each well.
The procedure for the positive control was as follows. 60 μL of assay buffer was pipetted into each well to be used as a positive control. To each well was then added 1 μL of DMSO, 20 μL of BACE work solution and 20 μL of MCA-substrate stock solution.
For test compounds, measured at multiple concentrations, the measured T0 and T60 values were used to calculate an IC50 value using Graphpad Software (or PIR).

[2] = molecular target: T1, β-secretase(BACE); assay: BACE Assay-2 (FS1 substrate, IC50 and Ki); settings: procedure of Example 159, FS1 substrate; for Ki: read-out: Ki μM (159)
[3] = molecular target: T1, β-secretase(BACE); assay: BACE FS1% Inhibition Assay; settings: FS1 substrate; for inhibition at 3 µM: read-out: % Inhibition (FS) 3 μM; for inhibition at 10 µM: read-out: % Inhibition (FS) 10 μM; for inhibition at 0.3 µM: 0.3 μM test compound, read-out: % Inhibition (FS) 0.3 μM; for inhibition at 1 µM: 1 μM test compound, read-out: % Inhibition (FS) 1 μM
Method in brief: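 Percent inhibition at each tested concentration, referenced to enzyme-free blank and vehicle-only positive control. Reaction: compound and BACE (4 μg/mL working stock) mixed 20 min at room temperature before FS1 substrate (300 μg/mL working stock), then 1 h at room temperature.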

T1 sequence (P56817 46-501): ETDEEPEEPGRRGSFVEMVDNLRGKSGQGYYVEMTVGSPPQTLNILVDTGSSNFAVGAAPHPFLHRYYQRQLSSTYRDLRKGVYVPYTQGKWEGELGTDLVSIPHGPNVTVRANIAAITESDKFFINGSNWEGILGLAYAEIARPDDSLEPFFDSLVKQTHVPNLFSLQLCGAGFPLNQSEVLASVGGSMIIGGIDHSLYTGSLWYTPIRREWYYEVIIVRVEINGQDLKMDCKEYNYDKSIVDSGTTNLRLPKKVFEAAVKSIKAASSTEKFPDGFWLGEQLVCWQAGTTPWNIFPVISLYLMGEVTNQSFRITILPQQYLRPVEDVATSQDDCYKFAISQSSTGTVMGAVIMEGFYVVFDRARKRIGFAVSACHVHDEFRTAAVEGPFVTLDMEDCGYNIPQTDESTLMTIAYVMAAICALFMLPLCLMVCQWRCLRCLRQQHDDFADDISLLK

## NC1=Nc2ccc(C(=O)c3ccccc3)cc2CN1CCCOc1ccccc1 [Compound 8]
[1]
  IC50: 3.1 µM
[2]
  IC50: 15 µM
  Ki: 1.2 µM

## CCCC(CCCC(=O)N(C)C1CCCCC1)N1Cc2cc(Oc3ccccc3)ccc2N=C1N (stereo not drawn) [Compound 90]
[1]
  IC50: 0.074 µM
[2]
  Ki: 0.22 µM
[3]; 3 μM test compound
  inhibition at 3 µM: 106%
[3]; 10 μM test compound
  inhibition at 10 µM: 124%

## CCCC(CCCC(=O)N(C)C1CCN(C)CC1)N1Cc2cc(Oc3ccccc3)ccc2N=C1N (stereo not drawn) [Compound 106]
[1]
  IC50: 0.15 µM
[2]
  Ki: 0.23 µM
[3]; 3 μM test compound
  % Inhibition (FS) 3 μM: 103%
[3]; 10 μM test compound
  % Inhibition (FS) 10 μM: 114%

## CN(C(=O)CCCCN1Cc2cc(Oc3cccc(NS(=O)(=O)c4ccccc4)c3)ccc2N=C1N)C1CCCCC1 [Compound 114]
[1]
  IC50: 0.079 µM
[2]
  Ki: 0.27 µM
[3]; 3 μM test compound
  inhibition at 3 µM: 109%
[3]; 10 μM test compound
  inhibition at 10 µM: 126%

## CC(C)C(=O)NCCN1Cc2cc(Oc3ccccc3)ccc2N=C1N [Compound 121]
[1]
  IC50: 0.58 µM
[2]
  Ki: 0.32 µM
[3]; 3 μM test compound
  inhibition at 3 µM: 103%
[3]; 10 μM test compound
  inhibition at 10 µM: 117%

## CCCCC(CC)C(=O)NCCN1Cc2cc(Oc3ccccc3)ccc2N=C1N (stereo not drawn) [Compound 122]
[1]
  IC50: 0.19 µM
[2]
  Ki: 0.17 µM
[3]; 3 μM test compound
  inhibition at 3 µM: 101%
[3]; 10 μM test compound
  inhibition at 10 µM: 123%

## NC1=Nc2ccc(Oc3ccccc3)cc2CN1CCNC(=O)C1CC1 [Compound 123]
[1]
  IC50: 1.2 µM
[2]
  Ki: 0.3 µM
[3]; 3 μM test compound
  inhibition at 3 µM: 71%
[3]; 10 μM test compound
  inhibition at 10 µM: 116%

## CCCC(CCC(=O)N(CC)C1CCCCC1)N1Cc2cc(Oc3ccccc3)ccc2N=C1N (stereo not drawn) [Compound 127]
[1]
  IC50: 0.16 µM
[2]
  Ki: 0.18 µM
[3]; 3 μM test compound
  inhibition at 3 µM: 79%
[3]; 10 μM test compound
  inhibition at 10 µM: 102%

## CCCC(CCC(=O)NC1CCCCC1)N1Cc2cc(Oc3ccccc3)ccc2N=C1N (stereo not drawn) [Compound 129]
[1]
  IC50: 0.1 µM
[2]
  Ki: 0.12 µM
[3]; 3 μM test compound
  inhibition at 3 µM: 113%
[3]; 10 μM test compound
  inhibition at 10 µM: 113%

## NC1=Nc2ccc(Oc3ccccc3)cc2CN1CCNC(=O)C1CCC1 [Compound 130]
[1]
  IC50: 0.45 µM
[2]
  Ki: 0.21 µM
[3]; 3 μM test compound
  inhibition at 3 µM: 101%
[3]; 10 μM test compound
  inhibition at 10 µM: 123%

## NC1=Nc2ccc(Oc3ccccc3)cc2CN1CCNC(=O)C12CC3CC(CC(C3)C1)C2 [Compound 131]
[1]
  IC50: 0.1 µM
[2]
  Ki: 0.17 µM
[3]; 3 μM test compound
  inhibition at 3 µM: 115%
[3]; 10 μM test compound
  inhibition at 10 µM: 130%

## CCCCS(=O)(=O)NCCN1Cc2cc(Oc3ccccc3)ccc2N=C1N [Compound 135, Butane-1-sulfonic acid [2-(2-amino-6-phenoxy-4H-quinazolin-3-yl)-ethyl]-amide]
[1]
  IC50: 0.89 µM
[2]
  Ki: 0.29 µM
[3]; 3 μM test compound
  inhibition at 3 µM: 89%
[3]; 10 μM test compound
  inhibition at 10 µM: 118%

## CN(C(=O)c1cccc(CN2Cc3cc(-c4ccccc4)ccc3N=C2N)c1)C1CCCCC1 [Compound 138]
[1]
  IC50: 0.023 µM
[2]
  Ki: 0.06 µM
[3]
  inhibition at 0.3 µM: 98%
  inhibition at 1 µM: 113%
[3]; 3 μM test compound
  inhibition at 3 µM: 114%

## CCCN1Cc2cc(Oc3cccc(NS(=O)(=O)c4ccc(-c5ccno5)s4)c3)ccc2N=C1N [Compound 278]
[1]
  IC50: > 10 µM

## CCCN1Cc2cc(Oc3cccc(NS(=O)(=O)c4cc(C(=O)O)ccc4OC)c3)ccc2N=C1N [Compound 279]
[1]
  IC50: > 10 µM

## CCCN1Cc2cc(Oc3cccc(NS(=O)(=O)c4ccc(-c5ccccc5)cc4)c3)ccc2N=C1N [Compound 280]
[1]
  IC50: 11 µM

## CCCN1Cc2cc(Oc3cccc(NS(=O)(=O)CCc4cccc5ccccc45)c3)ccc2N=C1N [Compound 281]
[1]
  IC50: 1.6 µM

## CCCN1Cc2cc(Oc3cccc(NS(=O)(=O)c4cccc(Br)c4)c3)ccc2N=C1N [Compound 282]
[1]
  IC50: > 10 µM

## CCCN1Cc2cc(Oc3cccc(NS(=O)(=O)c4ccc(OC(F)(F)F)cc4)c3)ccc2N=C1N [Compound 283]
[1]
  IC50: > 10 µM

## CCCN1Cc2cc(Oc3cccc(NS(=O)(=O)c4ccc(Br)s4)c3)ccc2N=C1N [Compound 284]
[1]
  IC50: 0.87 µM

## CCCN1Cc2cc(Oc3cccc(NS(=O)(=O)c4cc(S(=O)(=O)c5ccccc5)cs4)c3)ccc2N=C1N [Compound 285]
[1]
  IC50: > 10 µM

## COc1cc(OC)cc(Oc2ccc3c(c2)CN(CCCCC(=O)N(C)C2CCCCC2)C(N)=N3)c1 [Compound 288]
[1]
  IC50: > 10 µM

## CCOC(=O)N1CCC(N2Cc3cc(Oc4cccc(NS(=O)(=O)c5ccc(C)cc5OC)c4)ccc3N=C2N)CC1 [Compound 353]
[1]
  IC50: 0.35 µM

## COc1cc(C)ccc1S(=O)(=O)Nc1cccc(Oc2ccc3c(c2)CN(CCCCCO)C(N)=N3)c1 [Compound 355]
[1]
  IC50: 2.6 µM

## CCOC(=O)N1CCC(N2Cc3cc(Oc4cccc(NS(=O)(=O)c5c(C)cc(C)cc5C)c4)ccc3N=C2N)CC1 [Compound 362]
[1]
  IC50: 0.53 µM

## CCOC(=O)N1CCC(N2Cc3cc(Oc4cccc(NS(=O)(=O)c5ccccc5)c4)ccc3N=C2N)CC1 [Compound 376]
[1]
  IC50: 0.17 µM

## NC1=Nc2ccc(Oc3cccc(NS(=O)(=O)c4ccccc4)c3)cc2CN1CCCCCO [Compound 380]
[1]
  IC50: 0.71 µM

## Cc1cc(C)c(S(=O)(=O)Nc2cccc(Oc3ccc4c(c3)CN(CCCCCO)C(N)=N4)c2)c(C)c1 [Compound 383]
[1]
  IC50: 0.65 µM

## CC(C)(C)OC(=O)N1CCC(CN2Cc3cc(Oc4cccc(NS(=O)(=O)c5ccccc5)c4)ccc3N=C2N)CC1 [Compound 384]
[1]
  IC50: 0.13 µM

## CCCN1Cc2cc(-c3ccccc3CCNS(=O)(=O)c3ccccc3)ccc2N=C1N [Compound 385, N-{2-[2-(2-Amino-3-propyl-3,4-dihydro-quinazolin-6-yl)-phenyl]-ethyl}-benzenesulfonamide]
[1]
  IC50: 0.28 µM

## CCCN1Cc2cc([S+]([O-])c3cccc(NS(=O)(=O)c4ccccc4)c3)ccc2N=C1N (stereo not drawn) [Compound 387, N-[3-(2-Amino-3-propyl-3,4-dihydro-quinazoline-6-sulfinyl)-phenyl]-benzenesulfonamide]
[1]
  IC50: 3.3 µM

## CC(C)(C)OC(=O)NCCN1Cc2cc(Oc3cccc(NS(=O)(=O)c4ccccc4)c3)ccc2N=C1N [Compound 394]
[1]
  IC50: 0.87 µM

## CCCN1Cc2cc(-c3cccc(NS(=O)(=O)c4ccccc4)c3)ccc2N=C1N [Compound 397]
[1]
  IC50: 3.98 µM

## Cc1ccc(C(CCC(=O)N(C)C2CCCCC2)N2Cc3cc(Oc4ccccc4)ccc3N=C2N)cc1 (stereo not drawn) [Compound 421]
[1]
  IC50: 0.054 µM
[3]
  inhibition at 0.3 µM: < 30%
  inhibition at 1 µM: 71%
[3]; 3 μM test compound
  inhibition at 3 µM: 111%

## CCCN1Cc2cc(Oc3cccc(C(=O)NCc4c(C)cc(C)cc4C)c3)ccc2N=C1N [Compound 423]
[1]
  IC50: 5.8 µM

## CCCN1Cc2cc(Oc3cccc(CNCCc4ccccc4)c3)ccc2N=C1N [Compound 431]
[1]
  IC50: 0.8 µM

## CCCN1Cc2cc(Sc3cccc(NS(=O)(=O)c4c(C)cc(C)cc4C)c3)ccc2N=C1N [Compound 497]
[1]
  IC50: 0.011 µM

## CCCN1Cc2cc(Oc3cccc(NCc4c(C)cc(C)cc4C)c3)ccc2N=C1N [Compound 500]
[1]
  IC50: 0.16 µM

## CCCN1Cc2cc(Oc3cccc(NCc4c(OC)cccc4OC)c3)ccc2N=C1N [Compound 501]
[1]
  IC50: 3.4 µM

## CCCN1Cc2cc(Oc3cccc(NCc4ccc(OC)cc4)c3)ccc2N=C1N [Compound 502]
[1]
  IC50: 0.18 µM

## CCCN1Cc2cc(Oc3cccc(NCc4ccccc4)c3)ccc2N=C1N [Compound 507]
[1]
  IC50: 0.081 µM

## CN(C(=O)CCN1Cc2ccccc2N=C1N)c1ccccc1 [Compound 800]
[1]
  IC50: 17 µM
